Data: ChEMBL document CHEMBL6134903, “Challenging triple negative breast cancer through HDAC6 selective inhibition: Novel cap-group identification, structure-activity relationships, computational and biological studies” (Eur J Med Chem, 2025)

Tests used:
[1] = Cytotoxicity against human HeLa cells assessed as reduction in cell viability incubated for 72 hrs by CellTiter Glo assay; assay type: toxicity, cell-based
[2] = physchem; conditions: MeOH/H2O, pH 7
Description: Solubility of the compound in MeOH/H20 at pH 7 incubated for 24 hrs by LC-MS/MS analysis

| Structure (SMILES) | IC50 at 72 h [1] | CC50 at 72 h [1] | solubility at 24 h [2] |
| --- | --- | --- | --- |
| O=C(/C=C/c1ccc(CN(CCO)CCc2c[nH]c3ccccc23)cc1)NO [DACINOSTAT] | 0.0308 µM | 0.03 µM | – |
| CN1CCc2c(c3ccccc3n2Cc2ccc(C(=O)NO)cc2)C1 [TUBASTATIN A] | – | – | < 1 mg/mL |
| Cc1[nH]c2ccccc2c1CCNCc1ccc(/C=C/C(=O)NO)cc1 [PANOBINOSTAT] | 0.0109 µM | 0.011 µM | – |
